Article PMC12670427, “FDA Drug Repurposing Uncovers Modulators of Dopamine D2 Receptor Localization via Disruption of the NCS‑1 Interaction” (Journal of Medicinal Chemistry, 2025)
“And” between values parts separate entries of the source, which are not always exact repeats. Equal values may be shown once. Where a name gives a salt, the structure may show the parent alone.

Key:
[1] = biological target: T1, full-length NCS-1 (Homo sapiens, UniProt P62166); test: Tryptophan intrinsic emission fluorescence binding to full-length NCS-1; conditions: full-length NCS-1 5 μM, Trp emission at 330 nm, 35 °C, apparent Kd mean ± SD
T1 construct: For biophysical and crystallographic assays, full-length human NCS-1; made in house
T1 sequence (P62166 whole entry): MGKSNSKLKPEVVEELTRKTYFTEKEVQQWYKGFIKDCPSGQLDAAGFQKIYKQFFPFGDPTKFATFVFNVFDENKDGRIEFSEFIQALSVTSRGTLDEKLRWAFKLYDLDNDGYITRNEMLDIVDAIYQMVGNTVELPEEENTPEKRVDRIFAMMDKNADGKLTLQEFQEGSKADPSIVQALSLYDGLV
Method: To experimentally assess the binding of the FDA-approved drug library to NCS-1 we used tryptophan emission fluorescence. ,, Fluorescence intensity changes were measured at 330 nm in full-length NCS-1 upon increasing concentrations of the selected compounds (Figure A).

[2] = biological target: T2, NCS-1ΔH10 (Homo sapiens, UniProt P62166); test: Intrinsic emission fluorescence binding to NCS-1ΔH10; conditions: NCS-1ΔH10, intrinsic emission fluorescence; read-out: apparent binding affinity for H10-truncated NCS-1
T2 construct: NCS-1 construct lacking helix H10; made in house
T2 sequence (P62166 1-177 limits assumed, stated change not applied): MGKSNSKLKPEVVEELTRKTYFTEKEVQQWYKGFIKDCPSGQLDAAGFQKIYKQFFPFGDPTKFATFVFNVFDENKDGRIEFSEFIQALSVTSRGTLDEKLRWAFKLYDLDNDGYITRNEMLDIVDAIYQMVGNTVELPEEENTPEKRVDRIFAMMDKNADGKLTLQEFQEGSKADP
Method: To determine the affinity of the FDA-approved drugs for full-length NCS-1 or NCS-1ΔH10, we used fluorescence techniques, since the presence of tryptophan (Trp) and tyrosine (Tyr) residues in NCS-1 sequence confers the protein intrinsic emission fluorescence when excited at 295 nm. Fluorescence intensity was monitored at 330 nm and 35 °C with a nano-DSF machine (nanoTemper). Protein concentration was set to 5 μM in a buffer containing Tris 50 mM pH 8.0, NaCl 125 mM, CaCl2 5 μM, 5% DMSO. Ligand concentration was increased up to 150 μM. Three independent experiments were performed for each protein:ligand ratio. […] In fact, compound FDA-02, 09, 11, 15, 21, and 22 were measured using SPR due to their high intrinsic emission at 330 nm. The apparent dissociation constant, K d, was obtained by using a least-squares algorithm to fit the recorded data to the equation previously described. Apparent K d values are reported as mean ± SD. ,
Prior crystallization, the contribution of the helix H10 to ligand binding was assessed in case this information could guide construct selection for structural studies. […] Given the initial high affinity of AZS for full-length NCS-1, the affinity for the H10-truncated construct was not measured. Initial crystallization screenings yielded to crystals of ATV in complex with full-length NCS-1. […]

[3] = known drug property listed in Supplementary Table 1, no reference given; cited from earlier work
[4] = test system: D2R subcellular localization in HEK293 cells; test: Sequential immunostaining for D2R localization (membrane vs cytoplasm); format: cell-based, human; conditions: for effect of trafficking tool compounds on NCS-1-induced D2R membrane localization: HEK293 cells, NCS-1 overexpression
Method: HEK293 cells were seeded on poly-D-lysine-coated glass coverslips in 24-well plates. Following transfection and drug treatments, cells were fixed with 2% paraformaldehyde (PFA) for 10 min and with 4% PFA for an additional 10 min at room temperature. Coverslips with fixed cells were then blocked in PBS containing 10% normal goat serum (NGS) for 30 min at room temperature.
After three PBS washes, fluorescence was fixed with 10% formaldehyde for 3 min. The second round started with a blocking step using PBS containing 10% NGS and 0.03% Triton X-100 for 1 h at room temperature. […] Coverslips were washed with PBS and mounted using ProLong Gold Antifade (Thermo Fisher Scientific) with Hoechst for nuclear counterstaining. Confocal images were acquired using either a Leica SP5 or a Nikon ECLIPSE Ti microscope, depending on the experiment. […] Individual confocal images were processed by setting intensity thresholds for the green (cytoplasmic) and red (membrane) channels. Fluorescence intensity was then measured separately for each channel, and the relative proportion of green to red signal was calculated for each image.

[5] = biological target: T3, NCS-1/D2R interaction (Homo sapiens, UniProt P62166); test: Proximity ligation assay (PLA) with flow cytometry; format: cell-based; conditions: HEK293 cells, 5 μM, 16 h; vehicle set to 100%; mean ± SD
T3 construct: expressed in transfected cells; host or cells: HEK293
T3 sequence (P62166 2-190 limits assumed): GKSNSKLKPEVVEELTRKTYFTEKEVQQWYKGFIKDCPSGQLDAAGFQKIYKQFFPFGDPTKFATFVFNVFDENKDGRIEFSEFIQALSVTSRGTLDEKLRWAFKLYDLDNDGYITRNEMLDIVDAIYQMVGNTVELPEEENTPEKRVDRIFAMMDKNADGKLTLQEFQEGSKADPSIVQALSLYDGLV

[6] = biological target: T1, full-length NCS-1; test: Surface plasmon resonance over CM4-immobilized NCS-1; format: binding; conditions: SPR, NCS-1 immobilized on CM4 chip, 25 °C; used for compounds that emit at 330 nm; read-out: NCS-1/FDA Affinity, Kd
Excerpt: In these experiments, full-length NCS-1 was cross-linked to the surface of the biosensor, through its lysine amino acids, since these residues are concentrated on the upper surface and opposite to the hydrophobic crevice. This arrangement ensured that the hydrophobic crevice remained exposed to the solvent.
NCS-1 was immobilized on a CM4 sensor chip (Biacore, GE) following a standard amine coupling method. The carboxymethyl dextran surface of the flow cell 2 was activated by injecting a 1:1 mixture of 0.4 M EDC and 0.1 M NHS for 7 min. The protein was then covalently coupled to the surface via a 7 min injection at several dilutions, with a final concentration of 100 μg/mL in 10 mM sodium acetate, pH 4.0. Unreacted N-hydroxysuccinimide esters were quenched by a 7 min injection of 0.1 M ethanolamine-HCl pH 8.0, achieving an immobilization level of 5000 RUs. Flow cell 1, subjected to the same amine coupling procedure but without protein, served as a reference (Supplementary Figure 3A). Prior to use, 10 mM stock solutions of FDA-approved drugs were serially diluted to final concentration of 100 μM in running buffer. […] After dissociation, an additional wash step was performed using a 50% DMSO solution. Regeneration was not required.
(§1) Sensorgrams data were double-referenced and solvent-corrected using the BiaEvaluation X-100 software (Biacore, GE).

[7] = Solubility under the binding assay conditions; format: physicochemical; conditions: SPR running buffer; precipitated on the sensor chip
Excerpt: as §1

[8] = read-out: NCS-1/FDA Affinity, Kd

For `CC(C)c1c(C(=O)Nc2ccccc2)c(-c2ccccc2)c(-c2ccc(F)cc2)n1CC[C@@H](O)C[C@@H](O)CC(=O)O` [Atorvastatin], the Kd [1, 8] was 53 µM and 53.1 µM and the Kd [2] was 17 µM.
In the case of `CCOc1nc2cccc(C(=O)OCc3oc(=O)oc3C)c2n1Cc1ccc(-c2ccccc2-c2noc(=O)[nH]2)cc1` [Azilsartan medoxomil], the “Crossing the blood-brain barrier” value [3] is listed as “Low penetrance”.
For `C[C@H]1CCC/C=C/[C@@H]2C[C@H](O)C[C@H]2[C@H](O)/C=C/C(=O)O1` [BFA, Brefeldin A], the “effect of trafficking tool compounds on NCS-1-induced D2R membrane localization” value (from here on “effect of trafficking tool compounds”) [4] was “prevented the NCS-1-induced increase in membrane D2R”.
In the case of `CCN(CC)CCCC(C)Nc1ccnc2cc(Cl)ccc12` (centres unmarked) [Chloroquine], the Kd [1, 8] is listed as 200 ± 35 µM and the “Crossing the blood-brain barrier” value [3] is listed as “Yes”.
For `CCN(CC)CCOc1ccc(C(=C(Cl)c2ccccc2)c2ccccc2)cc1` [Clomiphene citrate], the “Crossing the blood-brain barrier” value [3] is listed as “No”.
In the case of `CCCCCCOC(=O)NC(=N)c1ccc(NCc2nc3cc(C(=O)N(CCC(=O)OCC)c4ccccn4)ccc3n2C)cc1` [Dabigatran etexilate], the Kd [1, 8] is given as 13.2 ± 2.5 µM and the “Crossing the blood-brain barrier” value [3] is given as “No”.
For `COC(=O)N[C@H](C(=O)N1CCC[C@H]1c1nc(-c2ccc(-c3ccc(-c4c[nH]c([C@@H]5CCCN5C(=O)[C@@H](NC(=O)OC)C(C)C)n4)cc3)cc2)c[nH]1)C(C)C` [Daclatasvir], the Kd [1, 8] is listed as 7.2 ± 0.1 µM, the “PPI modulation (PLA): NCS-1/D2R binding relative to vehicle-treated controls” value [5] is listed as 114.6 ± 17.4% and the “Crossing the blood-brain barrier” value [3] is listed as “No”.
For `CC(C)CN(C[C@@H](O)[C@H](Cc1ccccc1)NC(=O)O[C@H]1CO[C@H]2OCC[C@H]21)S(=O)(=O)c1ccc(N)cc1` [Darunavir], the “Crossing the blood-brain barrier” value [3] is given as “No”.
For `O=C(N/N=C/c1ccc(O)c(O)c1)c1cc2ccccc2cc1O` [Dynasore], the “effect of trafficking tool compounds” value [4] was “did not significantly affect”.
In the case of `CN1C[C@H](C(=O)N[C@]2(C)O[C@@]3(O)[C@@H]4CCCN4C(=O)[C@H](Cc4ccccc4)N3C2=O)C=C2c3cccc4[nH]cc(c34)C[C@H]21` [Ergotamine], the Kd ([1]; NCS-1/FDA Affinity, Kd) is given as 122 ± 18 µM and the “Crossing the blood-brain barrier” value [3] is given as “No”.
In the case of `C[C@]12CC[C@@H]3c4ccc(O)cc4C[C@@H](CCCCCCCCC[S+]([O-])CCCC(F)(F)C(F)(F)F)[C@H]3[C@@H]1CC[C@@H]2O` (some centres unmarked) [Faslodex], the “Crossing the blood-brain barrier” value [3] is listed as “No”.
For `CCN(CCO)CCCC(C)Nc1ccnc2cc(Cl)ccc12` (centres unmarked) [Hydroxychloroquine sulfate], the Kd [1, 8] is given as 353 ± 138 µM and the “Crossing the blood-brain barrier” value [3] is given as “Yes”.
In the case of `CCCCCCCN(CC)CCCC(O)c1ccc(NS(C)(=O)=O)cc1` (centres unmarked) [Ibutilide fumarate], the “NCS-1/FDA Affinity, Kd” value [1] is listed as “No affinity” and the “Crossing the blood-brain barrier” value [3] is listed as “No”.
For `Cc1ccc(NC(=O)c2ccc(CN3CCN(C)CC3)cc2)cc1Nc1nccc(-c2cccnc2)n1` [Imatinib], the “Crossing the blood-brain barrier” value [3] is listed as “Yes”.
In the case of `CS(=O)(=O)CCNCc1ccc(-c2ccc3ncnc(Nc4ccc(OCc5cccc(F)c5)c(Cl)c4)c3c2)o1` [Lapatinib], the “Crossing the blood-brain barrier” value [3] is given as “No”.
For `Cc1c(O)cccc1C(=O)N[C@@H](CSc1ccccc1)[C@H](O)CN1C[C@H]2CCCC[C@H]2C[C@H]1C(=O)NC(C)(C)C` [Nelfinavir], the Kd [1, 8] is listed as 47.6 ± 4.1 µM, the “PPI modulation (PLA): NCS-1/D2R binding relative to vehicle-treated controls” value [5] is listed as 112.0 ± 12.7% and the “Crossing the blood-brain barrier” value [3] is listed as “No”.
In the case of `CNCCCC1c2ccccc2C=Cc2ccccc21` [Protriptyline hydrochloride], the “Crossing the blood-brain barrier” value [3] is listed as “Yes”.
In the case of `CCCN(CCC)CCc1cccc2c1CC(=O)N2` [Ropinirole], the “effect of trafficking tool compounds” value [4] is reported as “reversed this effect”.
For `OCc1cc(C(O)CNCCCCCCOCCCCc2ccccc2)ccc1O` (centres unmarked) [Salmeterol], the Kd [6] is given as 68.2 ± 17.9 µM, the “PPI modulation (PLA): NCS-1/D2R binding relative to vehicle-treated controls” value [5] is given as 96.5 ± 17.2% and the “Crossing the blood-brain barrier” value [3] is given as “Yes”.
In the case of `CCN(CC)CCNC(=O)c1c(C)[nH]c(/C=C2\C(=O)Nc3ccc(F)cc32)c1C` [Sunitinib], the “Crossing the blood-brain barrier” value [3] is listed as “No”.
For `N#Cc1ccc2[nH]cc(CCCCN3CCN(c4ccc5oc(C(N)=O)cc5c4)CC3)c2c1` [Vilazodone], the Kd [1, 8] was 34 µM and 34.4 µM, the Kd [2] was 8 µM and the “effect on D2R localization in the absence of NCS-1 overexpression” value ([4]; HEK293 cells transfected with D2R alone) was “affected D2R localization”. For the same compound, the “Crossing the blood-brain barrier” value [3] was “Yes”.
For `O=C1Cc2cc(CCN3CCN(c4nsc5ccccc45)CC3)c(Cl)cc2N1` [ziprasidone], the “solubility under the experimental conditions” value [7] was “low solubility”.
In the case of Capreomycin sulfate, the “effect on NCS-1-induced D2R membrane localization” value ([4]; HEK293 cells cotransfected with D2R and NCS-1, 5 μM, 2 h) is reported as “modest effect”.
